US5015639A, “Substituted benzazepines, their preparation and pharmaceutical compositions containing them” (Schering Corporation, priority 1989, dated 1991)
pKi: −log10 of the molar value. Where two headings read alike, the source gives them in different places.

Key:
[1] = tested on: conditioned avoidance response (CAR); assay: Conditioned avoidance suppression in rats (Rat CAR); type: in vivo; settings: lowest dose that significantly (P<0.05) reduced avoidance responding, read-out: Rat CAR, minimal effective dose (MED)
Procedure: N. Y. Acad. Sci. 66, 740 (1957)}. A series of experiments was carried out to assess the ability of the compounds of this invention to suppress the conditioned avoidance response (CAR) in rats.
Rats were required to jump onto a platform located 6.75 inches (17.15 cm) above the grid floor of an experimental chamber in response to a 5-second tone to avoid a 10-second foot shock (0.6 ma). Each experimental session consisted of 20 such trials presented at 30-second intervals. A correct CAR is scored whenever the rat jumps onto the platform during the tone (prior to foot shock). An escape response is scored when the rat jumps onto the platform during a shock. A response failure is defined as the lack of an escape response during the 10-second shock period.
Groups of 6-8 rats were trained in two consecutive days (total of 40 trials). Rats that reached criterion on day 2 (correct CARs on 16 or more of the 20 trials) were treated with either a test drug or vehicle on day 3. Suppression of CAR was analyzed statistically using Student's t-test comparing the performances of drug-treated to vehicle-treated rats.

[2] = target: T1, D-2 receptor (Rattus norvegicus, UniProt P61169); assay: Competitive inhibition assay vs. 3H-spiperone (D-2 receptor binding); parameters: species or system Male Sprague-Dawley rat (striatal tissue); settings: rat striatal homogenate, 0.2 nM 3H-spiperone, pH 7.4, 37° C., 15 min
T1 construct: Striatal tissue was excised, pooled, and homogenized; tissue Charles River Breeding Laboratories, Mass; (animals); host or cells: striatum of male Sprague-Dawley rats, washed membrane pellet
Procedure: (§1) Many compounds capable of effecting reproducible physiological changes in neural tissues are believed to operate by binding at one or more receptor sites.
(§2) Tritiated SCH 23390 and tritiated spiperone (a potent D-2 ligand) were obtained as described in the Billard et al. reference supra and serially diluted in 0.05 M Tris buffer, pH 7.4, as required. A compound of the invention is diluted in 0.05 M Tris buffer, pH 7.4, as required.
(§3) Male Sprague-Dawley rats (200 to 250 g) from Charles River Breeding Laboratories, Mass. were used to obtain brain tissue. The rats were humanely sacrificed and their brains removed and placed on ice. Striatal tissue was excised, pooled, and homogenized (Brinkman Polytron, 10 sec) in 100 volumes (w/v) of ice cold 50 mM Tris buffer, pH 7.4 (at 25° C.). The homogenate was centrifuged at 20,000 xg for 10 min. The resultant pellet was rehomogenized in Tris buffer and centrifuged again. The final pellet was resuspended in 50 mM Tris buffer pH 7.4 containing 120 mM NaCl, 5 mM KCl, 2 mM CaCl2, and 1 mM MgCl2.
(§4) Polypropylene incubation tubes received 100 μl of the individual test compounds at various concentrations dissolved or suspended in 0.05 M Tris, pH 7.4 containing 4 mg/ml methylcellulose, 100 μl of a solution of ^3 H-SCH 23390 in Tris buffer (final reaction mixture concentration =0.3 nM) or 100 μl of a solution of 3H-spiperone in Tris buffer (final concentration =0.2 nM) and 800 μl of tissue suspension (ca. 3 mg/assay). Tubes were incubated at 37° C. for 15 minutes and rapidly vacuum filtered through Whatman GF/B filters and rinsed 4 times with 4 ml of ice cold 50 mM Tris buffer, pH 7.4. The filters were transferred to scintillation vials, equilibated with 10 ml of scintillant (Scintosol, Isolab, Inc.) for 16 hours at 25° C. and the radioactivity determined in a liquid scintillation counter. Ki values were determined as described by Billard et al. using the relationship Ki =IC50 /(1+([L]/KD)) wherein IC50 =concentration of test drug necessary to displace 50% of specifically bound ^3 H-Sch 23390, [L]=concentration of radioligand used in the assay, and KD =dissociation constant.

[3] = target: T2, dopamine D-1 receptor (Rattus norvegicus, UniProt P18901); assay: Competitive inhibition assay vs. 3H-SCH 23390 (dopamine D-1 receptor binding); parameters: species or system Male Sprague-Dawley rat (striatal tissue)
T2 construct: Striatal tissue was excised, pooled, and homogenized; tissue Charles River Breeding Laboratories, Mass; (animals); host or cells: striatum of male Sprague-Dawley rats, washed membrane pellet
Procedure: as §1, §2, §3, §4

[4] = rat striatal homogenate, 0.3 nM 3H-SCH 23390, pH 7.4, 37° C., 15 min, read-out: Ki vs. 3H-SCH 23390

T2 sequence (P18901 whole entry): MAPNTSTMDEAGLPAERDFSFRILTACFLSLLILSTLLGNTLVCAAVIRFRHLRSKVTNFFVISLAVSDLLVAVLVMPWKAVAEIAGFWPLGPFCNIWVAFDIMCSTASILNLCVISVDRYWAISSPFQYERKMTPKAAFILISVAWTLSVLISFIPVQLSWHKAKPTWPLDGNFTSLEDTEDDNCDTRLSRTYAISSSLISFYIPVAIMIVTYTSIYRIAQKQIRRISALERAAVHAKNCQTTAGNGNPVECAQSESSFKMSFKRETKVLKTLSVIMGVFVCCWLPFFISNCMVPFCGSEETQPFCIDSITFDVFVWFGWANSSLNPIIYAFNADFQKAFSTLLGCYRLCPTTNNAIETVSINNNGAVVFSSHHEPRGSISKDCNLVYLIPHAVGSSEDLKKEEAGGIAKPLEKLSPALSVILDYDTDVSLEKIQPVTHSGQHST
T1 sequence (P61169 whole entry): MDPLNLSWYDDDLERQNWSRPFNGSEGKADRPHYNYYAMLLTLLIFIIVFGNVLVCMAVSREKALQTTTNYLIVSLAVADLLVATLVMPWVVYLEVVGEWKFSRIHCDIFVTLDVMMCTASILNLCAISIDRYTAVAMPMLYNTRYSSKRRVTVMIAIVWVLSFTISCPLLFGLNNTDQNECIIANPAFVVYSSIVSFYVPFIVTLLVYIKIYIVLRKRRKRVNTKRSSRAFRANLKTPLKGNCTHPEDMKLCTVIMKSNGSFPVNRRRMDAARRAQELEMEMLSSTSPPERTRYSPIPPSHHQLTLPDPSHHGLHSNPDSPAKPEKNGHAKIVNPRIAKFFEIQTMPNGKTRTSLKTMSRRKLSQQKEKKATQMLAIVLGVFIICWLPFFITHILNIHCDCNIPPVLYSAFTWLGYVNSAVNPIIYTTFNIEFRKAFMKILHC

SMILES	minimal effective dose ([1]; po)	minimal effective dose ([1]; sc)	pKi [2]	pKi [3, 4]	pKi [3]
C=CCC1CN(C)CCc2cc(Cl)c(O)cc21 (centres unmarked) [Compound 14, 8-chloro-5-allyl-3-methyl-2,3,4,5-tetrahydro-lH-3-benzazepine-7-ol]	> 30 mg/kg	0.1 mg/kg	6.77	8.22	–
CN1CCc2cc(Cl)c(O)cc2C(Oc2ccccc2)C1 (centres unmarked) [Compound 4, 8-chloro-3-methyl-5-phenoxy-2,3,4,5-tetrahydro-lH-3-benzazepin-7-ol]	10 mg/kg	–	6.21	7.08	–
CCSC1CN(C)CCc2cc(Cl)c(O)cc21 (centres unmarked) [HO CH3 SC2 H5 H, 8-chloro-5-ethylthio-3-methyl-2,3,4,5-tetrahydro-lH-3-benzazepine-7-ol]	–	–	5.58	7.48	–
CN1CCc2cc(Cl)c(O)cc2C(Sc2ccccc2)C1 (centres unmarked) [Compound 5, 8-chloro-3-methyl-5-phenylthio-2,3,4,5-tetrahydro-lH-3-benzazepin-7-ol]	> 30 mg/kg	> 30 mg/kg	6.40	7.48	–
CCOC(=O)Oc1cc2c(cc1Cl)CCN(C)CC2C1CCCCC1 (centres unmarked) [Compound 16, 8-chloro-7-(ethoxy-formyloxy)-5-cyclohexyl-3-methyl-2,3,4,5-tetrahydro-lH-3-benzazepine]	> 30 mg/kg	< 3 mg/kg	5.48	6.88	–
CN1CCc2cc(Cl)c(O)cc2C(OCC(F)(F)F)C1 (centres unmarked) [Compound 9, 8-chloro-5-(2,2,2-trifluoroethoxy)-3-methyl-2,3,4,5-tetrahydro-lH-3-benzazepine-7-ol]	> 30 mg/kg	1 mg/kg	4.83	7.23	–
CN1CCc2cc(Cl)c(O)cc2C(N2CCCCC2)C1 (centres unmarked) [Compound 6, 8-chloro-3-methyl-5-(1-piperidinyl)-2,3,4,5-tetrahydro-lH-3-benzazepine-7-ol]	30 mg/kg	3 mg/kg	5.12	7.19	–
CC(=O)Oc1cc2c(cc1Cl)CCN(C)CC2CC=C(C)C (centres unmarked) [Compound 19, 8-chloro-7-acetoxy-5-(3-methyl-2-butenyl)-3-methyl-2,3,4,5-tetrahydro-lH-3-benzazepine]	> 30 mg/kg	< 1 mg/kg	6.02	7.77	–
C=CCC1CN(C)CCc2cc(Cl)c(OC(=O)COC)cc21 (centres unmarked) [Compound 18, 8-chloro-7-(methoxy-acetoxy)-5-allyl-3-methyl-2,3,4,5-tetrahydro-lH-3-benzazepine]	100 mg/kg	< 0.3 mg/kg	6.25	7.99	–
C=CCC1CN(C)CCc2cc(Cl)c(OCOC(=O)C(C)(C)C)cc21 (centres unmarked) [Compound 20, 8-chloro-7-(t-butyryloxy-methoxy)-5-allyl-3-methyl-2,3,4,5-tetrahydro-lH-3-benzazepine]	> 30 mg/kg	0.1 mg/kg	5.58	6.62	–
CN(C)CCCC1CN(C)CCc2cc(Cl)c(O)cc21 (centres unmarked) [HO CH3 (CH2)3 N(CH3)2 H, 8-chloro-5-(N,N-dimethylaminopropyl)-3-methyl-2,3,4,5-tetrahydro-lH-3-benzazepine-7-ol]	–	–	< 4.00	5.96	–
CN1CCc2cc(Cl)c(O)cc2C(n2ccnc2)C1 (centres unmarked) [Compound 7]	> 30 mg/kg	> 10 mg/kg	–	–	–
CN1CCc2cc(Cl)c(O)cc2C(C2CCCC2)C1 (centres unmarked) [Compound 12]	> 30 mg/kg	1 mg/kg	5.81	7.68	–
CN1CCc2cc(Cl)c(O)cc2C(OCc2ccccc2)C1 (centres unmarked) [Compound 10, 8-chloro-5-benzyloxy-3-methyl-2,3,4,5-tetrahydro-lH-3-benzazepine-7-ol]	> 30 mg/kg	3 mg/kg	5.64	7.52	–
CN1CCc2cc(Cl)c(O)cc2C(C2CCCCC2)C1 (centres unmarked) [Compound 8, 8-chloro-5-cyclohexyl-3-methyl-2,3,4,5-tetrahydro-lH-3-benzazepine-7-ol]	30 mg/kg	≤ 1 mg/kg	6.24	8.00	–
COC1CN(C)CCc2cc(Cl)c(O)cc21 (centres unmarked) [Compound 1, 8-chloro-5-methoxy-3-methyl-2,3,4,5-tetrahydro-lH-3-benzazepine-7-ol]	> 30 mg/kg	1 mg/kg	5.25	–	7.27
CCSC1CNCCc2cc(Cl)c(O)cc21 (centres unmarked) [Compound 3]	–	< 10 mg/kg	5.19	6.42	–
C=CCC1CN(C)CCc2cc(Cl)c(OC(=O)C(C)C)cc21 (centres unmarked) [Compound 17, 8-chloro-7-(isopropyl-formyloxy)-5-allyl-3-methyl-2,3,4,5-tetrahydro-lH-3-benzazepine]	> 30 mg/kg	0.3 mg/kg	5.46	7.08	–
CN1CCc2cc(Cl)c(O)cc2C(OCCc2ccccc2)C1 (centres unmarked) [Compound 11, 8-chloro-5-(phenethyloxy)-3-methyl-2,3,4,5-tetrahydro-lH-3-benzazepine-7-ol]	> 30 mg/kg	1 mg/kg	5.99	8.10	–
CN1CCc2cc(Cl)c(O)cc2C(=Cc2ccccc2)C1 [HO CH3 CHPh]	–	–	6.15	7.14	–
CCOC1CN(C)CCc2cc(Cl)c(O)cc21 (centres unmarked) [Compound 2, 8-chloro-5-ethoxy-3-methyl-2,3,4,5-tetrahydro-lH-3-benzazepine-7-ol]	> 30 mg/kg	1 mg/kg	5.11	–	7.47
CN1CCc2cc(Cl)c(O)cc2C(C2C=CCCC2)C1 (centres unmarked) [HO CH3 2-cyclohexenyl H, 8-chloro-5-(2-cyclohexenyl)-3-methyl-2,3,4,5-tetrahydro-lH-3-benzazepine-7-ol]	–	–	6.87	8.96	–
CN1CCc2cc(Cl)c(O)cc2C2(CCCC2)C1 [Compound 15, 8-chloro-7-hydroxy-3-methyl-2,3,4,5-tetrahydrospiro[lH-3-benzazepine-5,5'-cyclopentane]]	> 30 mg/kg	1 mg/kg	6.07	–	7.72
CN1CCc2cc(Cl)c(O)cc2C(n2cccc2)C1 (centres unmarked) [Compound 13, 8-chloro-5-(1-pyrrolyl)-3-methyl-2,3,4,5-tetrahydro-lH-3-benzazepine-7-ol]	> 30 mg/kg	0.3 mg/kg	4.79	7.96	–
CN1CCc2cc(Cl)c(O)cc2C(OC2CCCCC2)C1 (centres unmarked) [HO CH3 cyclohexyloxy H, 8-chloro-5-cyclohexyloxy-3-methyl-2,3,4,5-tetrahydro-lH-3-benzazepine-7-ol]	–	–	5.00	7.42	–
